Data on five compounds can be found in US20150125526A1 (Raptor Pharmaceuticals Inc., priority 2013, published 2015).

Series [1] deals with mice with the gene mutation for Huntington's disease. Conditions: mouse, in vivo; cited from earlier work.
Series [2] has as its system Sod2 null mice. Conditions: untreated Sod2 null mice die after approximately 1 week; cited from earlier work.
Series [3] relates to Sod2 null mice. Kind of series: Administration of cysteamine bitartrate to Sod2 null mice: survival, weight gain, toxicity. Type of series: in vivo. Conditions: cysteamine bitartrate 30 mg/kg, single dose. How it is done: Sod2 null mice provide a method for determining the efficacy in vivo of compounds having antioxidant properties, particularly those with mitochondrial efficacy. Without antioxidant efficacy, Sod2 null mice die after approximately 1 week, with antioxidant intervention, the lifespan can be extended 3-fold using powerful catalytic synthetic antioxidants such as EUK-189 (Melov et al., J Neurosci. 21(21):8348-53, 2001).
A single dose of the test agent is administered to the animals, either intraperitoneally or subcutaneously.

For series [4], the system named is intracellular cystine (circulating white blood cells). The conditions noted are these: cited from earlier work.
The test system of a further series is FRDA fibroblasts. Conditions: preincubation prior to exposure to BSO; cited from earlier work.

Regarding `NCCSSCCN` [Cystamine], in series [1], the “life (survival)” value was “prolong life” and the tremors entry is listed as “alleviate tremors”. `CC(=O)O.CCOc1cccc(C=NCCN=Cc2cccc(OCC)c2[O-])c1[O-].[Mn]` [EUK-189]: in the series on Sod2 null mice [2], the extension of lifespan is 3 fold. On to `NCCS` [cysteamine, Cysteamine (HS—CH2—CH2—NH2)], for which the “weight gain compared to untreated animals” value with Sod2 null mice [3] (initial experiment) is given as “normal”. In addition, the survival analysis result in the series on Sod2 null mice [3] (preliminary experiment) is recorded as “inconclusive”. Further, in series [4] (delivery of cysteamine into the small intestine (WO 2007/089670)), the “time to observed decrease in leukocyte cystine” value is reported as “within an hour”. In addition, in series [4] (taken regularly, measured in circulating white blood cells), the “depletion of intracellular cystine” value was “up to 90%”.

For `COC1=C(OC)C(=O)C(CCCCCCCCCCO)=C(C)C1=O` [idebenone], in the series on FRDA fibroblasts, the “protection from cell death” value is “protected cells from cell death”.

Regarding vitamin E, the “protection from cell death” value with FRDA fibroblasts is given as “protected cells from cell death”.
